Results from patent US20260285857A1, “BICYCLIC AND HETEROCYCLIC AMIDE COMPOUNDS” (priority 2024, published 2026).

Tested on: immunoglobulin light chain protein WIL-FL T46L
Test: Differential scanning fluorimetry (thermal shift) assay
Format: binding
Conditions: temperature shift [Tm]compound-[Tm]vehicle, recombinant WIL-FL T46L

| Structure (SMILES) | DSF (Table A) | DSF (Table B) |
| --- | --- | --- |
| Cc1cc(N2CC[C@](C)(c3ccccc3)C2)cn2nc(C(=O)NC3CCOCC3)nc12 [Compound 198] | ***** (>2.5° C.=*****) | – |
| Cc1cc(N2CC[C@](C)(c3ccccc3)C2)cn2nc(C(=O)NCC(C)(C)O)nc12 [Compound 100] | ***** (>2.5° C.=*****) | – |
| Cc1cc(N2CC[C@](C)(c3ccccc3)C2)cn2nc(C(=O)NC3CCC(F)(F)C3)nc12 (stereo partly shown) [Compound 154] | ***** (>2.5° C.=*****) | – |
| Cc1cc(N2CC[C@](C)(c3ccccc3)C2)cn2nc(C34CC(CO3)C4C(=O)Nc3cccc(C(=O)O)n3)nc12 (stereo partly shown) [Compound 478] | – | ***** (>2.5° C.=*****) |
| C[C@]1(c2ccccc2)CCN(c2cc(CO)c3nc(C45CC(CO4)C5C(N)=O)nn3c2)C1 (stereo partly shown) [Compound 495] | – | ***** (>2.5° C.=*****) |
| Cc1cc(N2CC[C@](C)(c3ccccc3)C2)cn2nc(C(=O)NC3COCC4(C3)CN(c3cccc(C(=O)O)n3)C4)nc12 (stereo partly drawn) [Compound 669, 6-(8-(8-methyl-6-((R)-3-methyl-3-phenylpyrrolidin-1-yl)-[1,2,4]triazolo[1,5-a]pyridine-2-carboxamido)-6-oxa-2-azaspiro[3.5]nonan-2-yl)picolinic acid] | – | ***** (>2.5° C.=*****) |
| Cc1cc(N2CC[C@](C)(c3ccccc3)C2)cn2nc(C34CC(CO3)C4N3C[C@]4(CC[C@@H](C(=O)O)CC4)NC3=O)nc12 (stereo partly shown) [Compound 526] | – | ***** (>2.5° C.=*****) |
| Cc1ncn(CC23COC(c4nc5c(C)cc(N6CC[C@](C)(c7ccccc7)C6)cn5n4)(C2)C3)n1 [Compound 447] | – | ***** (>2.5° C.=*****) |
| Cc1cc(N2CC[C@](C)(c3ccccc3)C2)cn2nc(C34CC(CO3)C4c3nc(NC(=O)CC4(C(=O)O)CC4)n[nH]3)nc12 (stereo partly shown) [Compound 559] | – | ***** (>2.5° C.=*****) |
| Cc1cc(N2CC[C@](C)(c3ccccc3)C2)cn2nc(C34CC(CO3)C4Cc3nnc[nH]3)nc12 (stereo partly drawn) [Compound 505, 2-(5-((4H-1,2,4-triazol-3-yl)methyl)-2-oxabicyclo[2.1.1]hexan-1-yl)-8-methyl-6-((R)-3-methyl-3-phenylpyrrolidin-1-yl)-[1,2,4]triazolo[1,5-a]pyridine] | – | ***** (>2.5° C.=*****) |
| Cc1cc(N2CC[C@@](C)(n3ccc(C(F)(F)F)n3)C2)cn2nc(C(=O)N3CC[C@@]4(CCN(c5cccc(C(=O)O)n5)C4)C3)nc12 [Compound 741] | – | ***** (>2.5° C.=*****) |
| Cc1cc(N2CC[C@](C)(c3cccc(Cl)c3)C2)cn2nc(C(=O)N3C[C@@H]4CN(c5cccc(C(=O)O)n5)C[C@@H]4C3)nc12 [Compound 418] | ***** (>2.5° C.=*****) | – |
| Cc1cc(OC[C@H](C)c2ccccc2)cn2nc(C(=O)N3CCC(C)(O)C3)nc12 (stereo partly shown) [Compound 316] | **** (>1.5-2.5° C.=****) | – |
| Cc1cc(N2CC[C@](C)(c3ccccc3)C2)cn2nc(C34CC(CO3)C4N3CC4(CN(C(=O)C5CC[C@@H](C(=O)O)O5)C4)NC3=O)nc12 (stereo partly shown) [Compound 517] | – | ***** (>2.5° C.=*****) |
| CCC1(c2ccccc2)CN(c2cc(C)c3nc(C45CC(CO)(CO4)C5c4nc(C)n[nH]4)nn3c2)C1 (stereo not shown) [Compound 579] | – | **** (>1.5-2.5° C.=****) |
| Cc1cc(N2CC[C@](C)(c3ccccc3)C2)cn2nc(C34CC(NC(=O)C5(C(=O)O)CCC5)(CO3)C4)nc12 [Compound 467] | – | ***** (>2.5° C.=*****) |
| Cc1cc(N2CC[C@](C)(c3ccccc3)C2)cn2nc(C(=O)N3CCC4(COC4)C3)nc12 [Compound 113] | ***** (>2.5° C.=*****) | – |

| Structure (SMILES) | DSF (Table A) | DSF (Table B) |
| --- | --- | --- |
| Cc1cc(N2CC[C@](C)(c3ccccc3)C2)cn2nc(C(=O)N3CC4CN(c5cccc(C(=O)O)n5)CC4(C#N)C3)nc12 (stereo partly drawn) [Compound 636, 6-[3a-cyano-5-[8-methyl-6-[(3R)-3-methyl-3-phenyl-pyrrolidin-1-yl]-[1,2,4]triazolo[1,5-a]pyridine-2-carbonyl]-3,4,6,6a-tetrahydro-1H-pyrrolo[3,4-c]pyrrol-2-yl]pyridine-2-carboxylic acid] | – | ***** (>2.5° C.=*****) |
| Cc1cc(N2CC[C@@](C)(n3ccc(C(F)(F)F)n3)C2)cn2nc(C(=O)N[C@@H]3CCN(c4cccc(C(=O)O)n4)CC34COC4)nc12 [Compound 701] | – | ***** (>2.5° C.=*****) |
| CO[C@@H]1CNC[C@H]1NC(=O)c1nc2c(C)cc(N3CC[C@](C)(c4ccccc4)C3)cn2n1 [Compound 140] | ***** (>2.5° C.=*****) | – |
| Cc1nc([C@@H]2[C@]3(C(C)(C)O)CO[C@@]2(c2nc4c(C)cc(N5CC[C@](C)(c6ccccc6)C5)cn4n2)C3)n[nH]1 [Compound 542] | – | ***** (>2.5° C.=*****) |
| Cc1cc(N2CC[C@](C)(c3ccccc3)C2)cn2nc(C(=O)N[C@@H]3CCNC3)nc12 [Compound 102] | ***** (>2.5° C.=*****) | – |
| Cc1cc(N2CC[C@](C)(c3ccccc3)C2)cn2nc(C(=O)NC3CCN(c4cccc(C(=O)O)n4)CC34COC4)nc12 (stereo partly drawn) [Compound 20, 6-(9-(8-methyl-6-((R)-3-methyl-3-phenylpyrrolidin-1-yl)-[1,2,4]triazolo[1,5-a]pyridine-2-carboxamido)-2-oxa-6-azaspiro[3.5]nonan-6-yl)picolinic acid] | ***** (>2.5° C.=*****) | – |
| Cc1cc(N2CC[C@](C)(c3ccccc3)C2)cn2nc(C(=O)N3CC4(CCN(c5cccc(C(=O)O)n5)C4)C3)nc12 [Compound 240] | ***** (>2.5° C.=*****) | – |
| Cc1cc(N2CC[C@](C)(c3ccccc3)C2)cn2nc(C34CC(CO3)C4c3nn[nH]n3)nc12 (stereo partly shown) [Compound 76] | ***** (>2.5° C.=*****) | – |
| Cc1cc(OC[C@H](C)c2ccccc2)cn2nc(C(=O)N3CCC(Cc4ccc(C(=O)O)nc4)CC3)nc12 [Compound 304] | ***** (>2.5° C.=*****) | – |
| Cc1cc(N2CC[C@](C)(c3ccccc3)C2)cn2nc(C(=O)N3CCC4(C3)CN(c3cccc(C(=O)O)n3)C4)nc12 [Compound 241] | ***** (>2.5° C.=*****) | – |
| Cc1cc(N2CC[C@](C)(c3ccccc3)C2)cn2nc(C(=O)NC3CCN(c4nccc(C(=O)O)n4)CC3)nc12 [Compound 238] | ***** (>2.5° C.=*****) | – |
| Cc1cc(N2CC[C@](C)(c3ccccc3)C2)cn2nc(C(=O)NC3(C(=O)O)CC3)nc12 [Compound 163] | ***** (>2.5° C.=*****) | – |
| Cc1cc(N2CC[C@](C)(c3ccccc3)C2)cn2nc(C(=O)N3CC[C@@]4(CCN(C(=O)[C@@H]5CC[C@H](C(=O)O)C5)C4)C3)nc12 [Compound 708, (1S,3R)-3-[(5R)-7-[8-methyl-6-[(3R)-3-methyl-3-phenyl-pyrrolidin-1-yl]-[1,2,4]triazolo[1,5-a]pyridine-2-carbonyl]-2,7-diazaspiro[4.4]nonane-2-carbonyl]cyclopentanecarboxylic acid] | – | ***** (>2.5° C.=*****) |
| CNC(=O)c1cn2cc(N3CC[C@](C)(c4ccccc4)C3)cc(C)c2n1 [Compound 434] | ***** (>2.5° C.=*****) | – |
| Cc1cc(N2CC[C@](C)(c3ccccc3)C2)cn2nc(C34CC(N5CCC(C(=O)O)CC5)(CO3)C4)nc12 [Compound 472, (R)-1-(1-(8-methyl-6-(3-methyl-3-phenylpyrrolidin-1-yl)-[1,2,4]triazolo[1,5-a]pyridin-2-yl)-2-oxabicyclo[2.1.1]hexan-4-yl)piperidine-4-carboxylic acid] | – | ***** (>2.5° C.=*****) |
| Cc1cc(OCC2(c3ccccc3)CC2)cn2nc(C34CC(N)(CO3)C4)nc12 [Compound 57] | ***** (>2.5° C.=*****) | – |
| Cc1cc(N2CC[C@](C)(c3ccccc3)C2)cn2nc(C(=O)NCC34CCCN3CC(F)C4)nc12 (stereo partly shown) [Compound 171] | ***** (>2.5° C.=*****) | – |
